Where a name gives a salt, the structure may show the parent alone.
How the values were obtained:
α1-adrenergic receptor = test: inhibition of prazocine[3H] binding in rat brain tissue
Experimental: (§1) The activity of derivatives of formula 1 as DRD3 ligands, modulators of the activity of DRD3 according to the invention, was evaluated on cells expressing human recombinant DRD3. […] These same compounds show an apparent affinity for the dopamine D2 receptor that is 100 to 500 times weaker. These same compounds have an affinity for the α1 adrenergic receptor that is 20 to 500 times weaker than that for the D3 receptor. The compounds of formula 1 are either antagonists (intrinsic activity<0.10), partial agonists (0.2<intrinsic activity<0.6) or full agonists (intrinsic activity>0.8). The biological results relative to certain compounds of formula 1 are presented in table 2 at the end of the description.

dopamine D3 receptor = biological target: T1, dopamine D3 receptor (Homo sapiens, UniProt P35462); test: inhibition of spiperone[3H] binding in CHO cells, dopamine D3 receptor; details: read-out: pKi D3 (converted)
T1 construct: expressed in transfected cells
Experimental: as §1

dopamine D2 receptor = biological target: T2, dopamine D2 receptor (Homo sapiens, UniProt P14416); test: inhibition of spiperone[3H] binding in CHO cells, dopamine D2 receptor; details: read-out: pKi D2 (converted)
T2 construct: expressed in transfected cells
Experimental: as §1

T2 sequence (P14416 whole entry, species assumed): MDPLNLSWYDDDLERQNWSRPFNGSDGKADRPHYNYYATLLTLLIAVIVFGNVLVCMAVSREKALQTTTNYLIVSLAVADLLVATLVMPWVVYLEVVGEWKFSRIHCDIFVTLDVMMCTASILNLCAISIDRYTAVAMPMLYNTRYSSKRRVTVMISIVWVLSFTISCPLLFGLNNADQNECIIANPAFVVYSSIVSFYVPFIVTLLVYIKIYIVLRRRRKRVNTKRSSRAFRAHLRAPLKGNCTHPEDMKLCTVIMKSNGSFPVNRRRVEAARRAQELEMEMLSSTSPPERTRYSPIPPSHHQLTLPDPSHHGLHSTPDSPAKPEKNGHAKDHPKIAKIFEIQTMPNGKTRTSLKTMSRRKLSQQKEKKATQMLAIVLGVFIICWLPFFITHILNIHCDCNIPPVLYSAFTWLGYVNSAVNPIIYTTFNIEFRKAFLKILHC
T1 sequence (P35462 whole entry): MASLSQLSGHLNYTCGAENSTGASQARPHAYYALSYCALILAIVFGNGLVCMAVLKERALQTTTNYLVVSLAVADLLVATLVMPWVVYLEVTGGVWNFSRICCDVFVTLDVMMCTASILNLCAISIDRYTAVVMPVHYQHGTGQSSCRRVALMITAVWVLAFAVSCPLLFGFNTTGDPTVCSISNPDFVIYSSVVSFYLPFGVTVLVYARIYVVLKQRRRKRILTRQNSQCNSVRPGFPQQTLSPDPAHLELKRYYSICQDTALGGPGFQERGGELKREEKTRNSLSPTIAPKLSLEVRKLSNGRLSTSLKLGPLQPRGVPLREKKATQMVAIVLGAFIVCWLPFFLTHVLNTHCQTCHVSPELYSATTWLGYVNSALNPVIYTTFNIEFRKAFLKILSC

Compound | melting point [°C] | pKi α1 (α1-adrenergic receptor) | Ki (dopamine D3 receptor) [µM] | Ki (dopamine D2 receptor) [µM]
N#Cc1cccc(N2CCN(CCCCNC(=O)C3=Cc4ccccc4OC3)CC2)c1 (as salt: hydrochloride) [Example 14, 2H-Chromene-3-carboxylic acid {4-[4-(3-cyanophenyl)-piperazin-1-yl]-1-butyl}-amide] | 229 |  |  | 
CCOC(=O)c1cccc(N2CCN(CCCCNC(=O)C3=Cc4ccccc4OC3)CC2)c1 (as salt: hydrochloride) [Example 21, 3-(4-{4-[(2H-Chromene-3-carbonyl)-amino]-butyl}-piperazin-1-yl)-benzoic acid ethyl ester hydrochloride] | 229 |  |  | 
CCOC(=O)c1ccc(N2CCN(CCCCNC(=O)C3=Cc4ccccc4OC3)CC2)cc1 (as salt: hydrochloride) [Example 22, 4-(4-{4-[(2H-Chromene-3-carbonyl)-amino]-butyl}-piperazin-1-yl)-benzoic acid ethyl ester hydrochloride] | 237 |  |  | 
COc1cc(OC)cc(N2CCN(CCCCNC(=O)C3=Cc4ccccc4OC3)CC2)c1 (as salt: hydrochloride) [Example 23, 2H-Chromene 3 carboxylic acid {4-[4-(3,5-dimethoxyphenyl)piperazin-1-yl]-butyl}-amide hydrochloride] | 213 |  |  | 
O=C(NCCCCN1CCN(c2cccc(Cl)c2Cl)CC1)C1=Cc2cc(Cl)ccc2OC1 (as salt: hydrochloride) [Example 28, 6-Chloro-2H-Chromene-3-carboxylic acid {4-[4-(2,3-dichlorophenyl)-piperazin-1-yl]-butyl}-amide] | 214 |  |  | 
COc1ccc(Br)c2c1OCC(C(=O)NCCCCN1CCN(c3ccccc3F)CC1)=C2 (as salt: hydrochloride) [Example 49, 5-Bromo-8-methoxy-2H-chromene-3-carboxylic acid {4-[4 (2-fluorophenyl)-piperazin-1-yl]-butyl}-amide hydrochloride] | 157 |  |  | 
O=C(NCCCCN1CCN(c2cccc(Cl)c2Cl)CC1)C1=Cc2ccccc2OC1 [Example 2, 2H-Chromene-3-carboxylic acid {4-[4-(2,3-dichlorophenyl)-piperazin-1-yl]-butyl}-amide] |  | 7.29 | 0.000813 | 0.123
O=C(NCCCCN1CCN(c2cccc(C(F)(F)F)c2)CC1)C1=Cc2ccccc2OC1 [Example 16, 2H-Chromene-3-carboxylic acid {4-[4-(3-trifluoromethylphenyl)-piperazin-1-yl]-butyl}-amide] |  | 7.55 | 0.00269 | 0.447
COc1ccc2c(c1)C=C(C(=O)NCCCCN1CCN(c3ccccc3OC)CC1)CO2 [Example 54, 6-Methoxy-2H-chromene-3-carboxylic acid {4-[4-(2-methoxyphenyl)piperazin-1-yl]-butyl}-amide] |  | 8.05 | 0.000537 | 0.417
COc1ccc2c(c1)C=C(C(=O)NCCCCN1CCN(c3cccc(Cl)c3Cl)CC1)CO2 [Example 55, 6-Methoxy-2H-chromene-3-carboxylic acid {4-[4-(2,3-dichlorophenyl)-piperazin-1-yl]-butyl}-amide] |  |  | 0.000794 | 0.251
O=C(NCCCCN1CCN(c2cccc3c2OCCO3)CC1)C1=Cc2ccccc2OC1 [Example 105, 2H-chromene-3-carboxylic acid {4-[4-(2,3-dihydro-benzo[1,4]dioxin-5-yl)-piperazin-1-yl]-butyl}-amide] |  | 7.81 | 0.000603 | 0.132
